Measurements as given in publication PMC8510124, “Design, Synthesis, Biological Evaluation and In Silico Study of Benzyloxybenzaldehyde Derivatives as Selective ALDH1A3 Inhibitors” (Molecules, 2021).

Experiments:
ALDH1A3 [1] = molecular target: T1, ALDH1A3 (Homo sapiens, UniProt P47895); experiment: fluorimetric NADH dehydrogenase assay, […] hexanal, IC50 curve; type: biochemical; settings: read-out: IC50 (μM) ± SE ALDH1A3
T1 construct: recombinant, N-terminal (His)6 tag
T1 sequence (P47895 2-512): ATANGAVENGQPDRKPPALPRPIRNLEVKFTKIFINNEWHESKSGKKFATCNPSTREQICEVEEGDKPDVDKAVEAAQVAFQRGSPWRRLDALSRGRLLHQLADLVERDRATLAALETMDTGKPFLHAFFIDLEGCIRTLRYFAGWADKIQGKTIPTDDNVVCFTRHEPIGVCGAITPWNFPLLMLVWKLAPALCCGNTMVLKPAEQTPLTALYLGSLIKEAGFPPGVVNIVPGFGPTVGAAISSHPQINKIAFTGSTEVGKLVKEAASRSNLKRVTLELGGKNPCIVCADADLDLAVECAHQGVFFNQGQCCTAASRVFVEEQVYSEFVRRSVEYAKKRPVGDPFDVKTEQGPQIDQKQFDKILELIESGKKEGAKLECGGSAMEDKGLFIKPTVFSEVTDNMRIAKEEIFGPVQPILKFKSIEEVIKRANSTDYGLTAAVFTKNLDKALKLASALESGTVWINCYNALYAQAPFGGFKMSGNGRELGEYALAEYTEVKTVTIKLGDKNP

ALDH1A3 [2] = molecular target: T1, ALDH1A3; experiment: fluorimetric NADH assay, single point […], […] hexanal (near Km); type: biochemical; settings: read-out: Remaining Activity ± SE (%) at 10 μM Compound / ALDH1A3 / [S] near Km (10 μM Hex)

Row | IC50 (ALDH1A3 [1]) [µM] | remaining activity at 10 µM (ALDH1A3 [2]) [%] | Structure (SMILES)
1 | 1.29 ± 0.1 |  | COc1cc(C=O)ccc1OCc1ccc(Cl)cc1 [ABMM-16, 4-((4-Chlorobenzyl)oxy)-3-methoxybenzaldehyde]
2 |  | 16 ± 3.4 | COc1cc(C=O)cc(OC)c1OC(=O)c1ccc(F)cc1 [ABMM-18, 4-Formyl-2,6-dimethoxyphenyl 4-Fluorobenzoate]
3 |  | 21.07 ± 0.1 | COc1cc(C=O)ccc1OC(=O)c1ccc(Cl)cc1 [ABMM-1, 4-Formyl-2-methoxyphenyl 4-Chlorobenzoate]
4 | 0.23 ± 0.05 |  | O=Cc1ccc(OCc2ccc(Cl)cc2)cc1 [ABMM-15, 4-((4-Chlorobenzyl)oxy)benzaldehyde]
